Experiments:
[1] = Selectivity interaction (Kinase panel (KiNativ target engagement assay in Jurkat cells)) EUB0001635a STLK6; details: Selectivity number of off-targets 0; Selectivity number of targets 233; Source Knowledge https://www.sciencedirect.com/science/article/pii/S2451945619300674?via%3Dihub; at 1 µM
[2] = biological target: Serine/threonine-protein kinase MARK2 (Homo sapiens) (UniProt Q7KZI7); experiment: Selectivity interaction (ActivX KiNativ screen (kinase selectivity in THP-1 cell lysates)) EUB0000639a MARK2; format: subcellular; details: lysate, at 1 µM
Sequence of Serine/threonine-protein kinase MARK2 (Homo sapiens) (Q7KZI7 whole entry): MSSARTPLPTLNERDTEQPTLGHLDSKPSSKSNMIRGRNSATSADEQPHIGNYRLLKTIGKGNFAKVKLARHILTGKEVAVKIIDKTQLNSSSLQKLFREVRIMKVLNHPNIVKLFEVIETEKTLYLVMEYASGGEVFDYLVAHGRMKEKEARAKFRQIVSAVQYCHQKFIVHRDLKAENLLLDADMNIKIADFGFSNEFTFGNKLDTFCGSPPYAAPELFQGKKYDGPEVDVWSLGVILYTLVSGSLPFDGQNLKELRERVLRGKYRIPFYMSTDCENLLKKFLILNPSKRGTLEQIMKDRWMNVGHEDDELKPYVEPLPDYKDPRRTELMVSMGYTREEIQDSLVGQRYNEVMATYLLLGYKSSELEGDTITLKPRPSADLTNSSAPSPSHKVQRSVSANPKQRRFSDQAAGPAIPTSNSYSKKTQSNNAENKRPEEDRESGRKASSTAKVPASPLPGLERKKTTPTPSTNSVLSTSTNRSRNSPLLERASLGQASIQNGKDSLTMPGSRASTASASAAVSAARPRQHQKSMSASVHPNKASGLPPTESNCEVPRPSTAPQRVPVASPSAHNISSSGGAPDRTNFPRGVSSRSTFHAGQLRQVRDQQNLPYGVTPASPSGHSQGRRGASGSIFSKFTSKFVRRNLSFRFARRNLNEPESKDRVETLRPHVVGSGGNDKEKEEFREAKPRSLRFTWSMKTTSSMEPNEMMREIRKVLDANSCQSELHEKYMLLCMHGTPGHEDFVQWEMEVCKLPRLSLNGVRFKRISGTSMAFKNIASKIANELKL

[3] = biological target: Serine/threonine-protein kinase 10 (Homo sapiens) (UniProt O94804); experiment: Selectivity interaction (Kinase panel (DSF assay)) EUB0001489b STK10
Sequence of Serine/threonine-protein kinase 10 (Homo sapiens) (O94804 whole entry, looked up): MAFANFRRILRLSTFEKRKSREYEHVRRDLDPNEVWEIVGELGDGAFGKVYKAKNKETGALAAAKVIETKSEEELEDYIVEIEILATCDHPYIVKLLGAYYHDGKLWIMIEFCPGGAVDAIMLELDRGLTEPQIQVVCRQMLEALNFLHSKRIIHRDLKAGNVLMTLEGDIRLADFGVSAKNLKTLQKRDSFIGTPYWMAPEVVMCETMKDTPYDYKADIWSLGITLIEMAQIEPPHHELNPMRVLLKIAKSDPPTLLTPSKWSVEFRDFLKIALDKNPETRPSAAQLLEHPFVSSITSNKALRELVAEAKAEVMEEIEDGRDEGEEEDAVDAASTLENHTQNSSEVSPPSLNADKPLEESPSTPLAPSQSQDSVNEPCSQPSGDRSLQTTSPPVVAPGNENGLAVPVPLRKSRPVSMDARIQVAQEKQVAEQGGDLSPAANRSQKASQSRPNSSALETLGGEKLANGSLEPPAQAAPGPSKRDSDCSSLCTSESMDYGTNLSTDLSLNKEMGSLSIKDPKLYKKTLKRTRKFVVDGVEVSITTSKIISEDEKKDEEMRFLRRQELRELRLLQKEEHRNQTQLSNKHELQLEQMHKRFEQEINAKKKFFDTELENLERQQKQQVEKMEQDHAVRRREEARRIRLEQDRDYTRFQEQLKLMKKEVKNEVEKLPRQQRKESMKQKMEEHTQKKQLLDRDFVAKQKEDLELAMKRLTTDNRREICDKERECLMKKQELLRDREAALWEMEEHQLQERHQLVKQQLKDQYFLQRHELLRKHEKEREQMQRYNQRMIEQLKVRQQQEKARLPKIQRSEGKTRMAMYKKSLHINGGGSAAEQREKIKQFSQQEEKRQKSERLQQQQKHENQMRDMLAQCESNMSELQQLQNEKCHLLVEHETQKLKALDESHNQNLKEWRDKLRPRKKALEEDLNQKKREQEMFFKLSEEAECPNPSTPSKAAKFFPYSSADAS

[4] = biological target: Ephrin type-A receptor 5 (Homo sapiens) (UniProt P54756); experiment: Selectivity interaction (KinomeScan (DiscoverX)) EUB0000092b EPHA5; details: at 10 µM
Sequence of Ephrin type-A receptor 5 (Homo sapiens) (P54756 whole entry): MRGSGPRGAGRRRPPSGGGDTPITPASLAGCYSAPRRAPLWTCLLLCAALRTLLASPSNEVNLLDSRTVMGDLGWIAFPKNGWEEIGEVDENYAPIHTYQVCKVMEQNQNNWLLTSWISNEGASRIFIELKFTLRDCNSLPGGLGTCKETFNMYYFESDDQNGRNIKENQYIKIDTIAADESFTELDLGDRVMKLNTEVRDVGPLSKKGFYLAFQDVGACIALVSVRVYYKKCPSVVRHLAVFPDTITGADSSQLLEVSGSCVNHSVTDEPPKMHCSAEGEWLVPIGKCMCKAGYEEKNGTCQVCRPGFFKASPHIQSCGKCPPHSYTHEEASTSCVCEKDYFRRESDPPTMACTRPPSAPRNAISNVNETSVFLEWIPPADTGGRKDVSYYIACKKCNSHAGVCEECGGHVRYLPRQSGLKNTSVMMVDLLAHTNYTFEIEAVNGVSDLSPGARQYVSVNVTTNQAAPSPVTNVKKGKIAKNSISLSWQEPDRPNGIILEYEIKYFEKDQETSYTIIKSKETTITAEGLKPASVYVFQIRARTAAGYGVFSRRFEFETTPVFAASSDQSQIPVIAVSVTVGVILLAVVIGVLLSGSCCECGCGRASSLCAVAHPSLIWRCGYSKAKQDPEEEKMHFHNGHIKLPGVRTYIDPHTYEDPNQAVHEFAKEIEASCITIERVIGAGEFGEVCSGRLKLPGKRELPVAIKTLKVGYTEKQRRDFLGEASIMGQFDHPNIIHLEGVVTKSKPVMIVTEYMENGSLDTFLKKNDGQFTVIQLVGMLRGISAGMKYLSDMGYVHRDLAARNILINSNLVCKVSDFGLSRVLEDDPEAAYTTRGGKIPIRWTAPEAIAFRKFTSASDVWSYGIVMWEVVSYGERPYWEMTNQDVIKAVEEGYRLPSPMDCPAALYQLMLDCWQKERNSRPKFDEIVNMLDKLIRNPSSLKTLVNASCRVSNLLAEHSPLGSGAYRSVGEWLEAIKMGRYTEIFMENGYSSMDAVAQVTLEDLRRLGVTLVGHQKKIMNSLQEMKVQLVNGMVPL

[5] = biological target: Protein kinase C theta type (Homo sapiens, UniProt Q04759); experiment: Selectivity interaction (Ambit KINOMEscan and KiNATiv profiling in Jurkat cells) EUB0000090b PRKCQ; format: cell-based; details: at 1 µM
Sequence of Protein kinase C theta type (Q04759 whole entry, looked up): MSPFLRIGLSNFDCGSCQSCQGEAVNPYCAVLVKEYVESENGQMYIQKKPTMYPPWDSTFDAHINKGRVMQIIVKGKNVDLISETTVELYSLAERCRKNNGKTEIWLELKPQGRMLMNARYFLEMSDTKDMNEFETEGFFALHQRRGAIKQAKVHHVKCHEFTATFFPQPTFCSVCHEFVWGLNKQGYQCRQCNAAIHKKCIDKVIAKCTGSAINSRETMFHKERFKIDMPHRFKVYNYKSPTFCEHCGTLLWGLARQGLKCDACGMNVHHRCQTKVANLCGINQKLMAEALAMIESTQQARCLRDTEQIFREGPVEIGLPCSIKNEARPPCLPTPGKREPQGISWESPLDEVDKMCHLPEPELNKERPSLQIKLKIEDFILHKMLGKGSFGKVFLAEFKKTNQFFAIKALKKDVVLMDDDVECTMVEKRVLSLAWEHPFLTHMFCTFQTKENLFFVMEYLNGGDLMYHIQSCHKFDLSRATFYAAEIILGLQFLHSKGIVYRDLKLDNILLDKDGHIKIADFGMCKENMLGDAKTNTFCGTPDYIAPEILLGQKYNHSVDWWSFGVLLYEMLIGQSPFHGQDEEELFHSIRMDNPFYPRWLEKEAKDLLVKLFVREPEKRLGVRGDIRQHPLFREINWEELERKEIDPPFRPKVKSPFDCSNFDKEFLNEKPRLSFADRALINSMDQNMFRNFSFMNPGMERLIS

[6] = biological target: T1, Mitogen-activated protein kinase kinase kinase 19 (Homo sapiens) (UniProt Q56UN5); experiment: Selectivity interaction (KinomeScan (DiscoverX)) EUB0000045b MAP3K19
T1 sequence (whole entry): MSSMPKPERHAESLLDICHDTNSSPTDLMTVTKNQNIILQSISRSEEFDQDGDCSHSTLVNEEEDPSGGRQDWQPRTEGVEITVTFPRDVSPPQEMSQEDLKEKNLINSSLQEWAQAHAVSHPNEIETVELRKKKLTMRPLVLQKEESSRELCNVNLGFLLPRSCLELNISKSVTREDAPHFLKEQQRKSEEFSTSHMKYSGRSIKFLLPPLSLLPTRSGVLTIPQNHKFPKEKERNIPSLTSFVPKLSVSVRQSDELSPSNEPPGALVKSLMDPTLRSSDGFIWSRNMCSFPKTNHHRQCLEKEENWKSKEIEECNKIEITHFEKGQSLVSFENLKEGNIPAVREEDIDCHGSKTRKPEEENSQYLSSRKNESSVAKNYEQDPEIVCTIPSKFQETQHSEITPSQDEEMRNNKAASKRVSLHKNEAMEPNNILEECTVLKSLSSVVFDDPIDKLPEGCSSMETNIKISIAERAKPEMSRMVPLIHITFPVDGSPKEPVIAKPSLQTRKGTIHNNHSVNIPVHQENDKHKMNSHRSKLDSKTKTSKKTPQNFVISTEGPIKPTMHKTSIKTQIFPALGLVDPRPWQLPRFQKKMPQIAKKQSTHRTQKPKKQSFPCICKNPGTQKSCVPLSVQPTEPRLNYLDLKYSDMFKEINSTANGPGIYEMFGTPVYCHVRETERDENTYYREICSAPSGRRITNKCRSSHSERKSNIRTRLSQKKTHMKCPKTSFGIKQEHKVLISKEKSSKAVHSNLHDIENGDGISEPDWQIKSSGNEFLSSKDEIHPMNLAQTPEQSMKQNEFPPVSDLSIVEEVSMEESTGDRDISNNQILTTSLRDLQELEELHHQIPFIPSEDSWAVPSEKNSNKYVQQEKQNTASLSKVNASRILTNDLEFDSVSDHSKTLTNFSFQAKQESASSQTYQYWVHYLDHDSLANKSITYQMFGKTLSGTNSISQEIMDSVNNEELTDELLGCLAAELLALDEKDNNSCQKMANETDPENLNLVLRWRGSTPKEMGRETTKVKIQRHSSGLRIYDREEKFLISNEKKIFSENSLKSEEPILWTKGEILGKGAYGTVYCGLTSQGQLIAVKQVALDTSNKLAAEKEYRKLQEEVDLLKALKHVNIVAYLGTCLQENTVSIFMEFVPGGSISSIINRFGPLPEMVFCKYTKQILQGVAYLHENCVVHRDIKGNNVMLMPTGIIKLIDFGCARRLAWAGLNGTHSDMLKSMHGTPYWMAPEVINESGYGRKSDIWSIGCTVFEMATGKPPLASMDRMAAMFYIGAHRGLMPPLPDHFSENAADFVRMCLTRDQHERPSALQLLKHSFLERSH

[7] = biological target: Serine/threonine-protein kinase pim-2 (Homo sapiens, UniProt Q9P1W9)
Sequence of Serine/threonine-protein kinase pim-2 (Q9P1W9 whole entry): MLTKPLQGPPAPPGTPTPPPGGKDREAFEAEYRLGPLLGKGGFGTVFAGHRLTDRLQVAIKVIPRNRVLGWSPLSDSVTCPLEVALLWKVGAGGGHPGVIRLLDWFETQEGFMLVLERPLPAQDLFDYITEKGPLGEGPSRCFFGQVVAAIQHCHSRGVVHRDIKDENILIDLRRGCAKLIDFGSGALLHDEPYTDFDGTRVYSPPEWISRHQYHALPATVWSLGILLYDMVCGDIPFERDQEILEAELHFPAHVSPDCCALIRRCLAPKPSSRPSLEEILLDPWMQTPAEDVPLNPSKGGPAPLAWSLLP

[8] = biological target: T2, Serine/threonine-protein kinase Nek9 (Homo sapiens) (UniProt Q8TD19); experiment: Selectivity interaction (KinomeScan (DiscoverX)) EUB0000655a NEK9; details: at 10 µM
T2 sequence (whole entry): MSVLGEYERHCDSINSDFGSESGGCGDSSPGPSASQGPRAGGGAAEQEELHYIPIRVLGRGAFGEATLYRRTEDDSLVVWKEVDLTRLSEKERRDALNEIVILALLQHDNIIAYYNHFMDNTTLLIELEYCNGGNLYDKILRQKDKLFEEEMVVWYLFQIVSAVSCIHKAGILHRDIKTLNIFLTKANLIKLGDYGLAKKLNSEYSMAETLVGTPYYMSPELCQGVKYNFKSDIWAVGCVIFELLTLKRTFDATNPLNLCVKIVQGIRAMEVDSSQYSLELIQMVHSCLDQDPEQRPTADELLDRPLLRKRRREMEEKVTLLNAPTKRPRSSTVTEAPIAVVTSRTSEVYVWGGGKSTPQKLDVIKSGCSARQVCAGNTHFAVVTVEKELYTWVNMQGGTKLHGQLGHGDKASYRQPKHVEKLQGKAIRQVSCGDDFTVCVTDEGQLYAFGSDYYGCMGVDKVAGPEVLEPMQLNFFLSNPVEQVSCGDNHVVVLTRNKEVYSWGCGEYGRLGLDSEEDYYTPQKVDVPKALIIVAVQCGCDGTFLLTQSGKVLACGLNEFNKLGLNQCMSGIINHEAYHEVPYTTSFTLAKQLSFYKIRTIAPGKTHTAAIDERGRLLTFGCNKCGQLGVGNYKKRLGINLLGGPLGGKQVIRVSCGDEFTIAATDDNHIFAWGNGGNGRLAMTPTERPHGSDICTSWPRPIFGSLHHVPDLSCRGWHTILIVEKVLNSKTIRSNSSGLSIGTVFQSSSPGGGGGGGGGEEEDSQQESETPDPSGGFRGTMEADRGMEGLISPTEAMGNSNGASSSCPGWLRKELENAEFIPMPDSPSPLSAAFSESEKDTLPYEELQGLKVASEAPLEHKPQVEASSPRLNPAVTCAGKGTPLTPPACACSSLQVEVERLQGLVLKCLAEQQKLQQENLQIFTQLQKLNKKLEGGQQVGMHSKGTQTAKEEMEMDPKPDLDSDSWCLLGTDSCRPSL

[9] = biological target: Fibroblast growth factor receptor 2 (Homo sapiens) (UniProt P21802); experiment: Selectivity interaction (Kinase panel (Z-LYTE Assay)) EUB0001632a FGFR2; details: at 10 µM
[10] = biological target: Protein kinase C delta type (Homo sapiens) (UniProt Q05655); experiment: Selectivity interaction (Kinase panel (Z-LYTE Assay)) EUB0001632a PRKCD; details: at 10 µM
Sequence of Protein kinase C delta type (Homo sapiens) (Q05655 whole entry, looked up): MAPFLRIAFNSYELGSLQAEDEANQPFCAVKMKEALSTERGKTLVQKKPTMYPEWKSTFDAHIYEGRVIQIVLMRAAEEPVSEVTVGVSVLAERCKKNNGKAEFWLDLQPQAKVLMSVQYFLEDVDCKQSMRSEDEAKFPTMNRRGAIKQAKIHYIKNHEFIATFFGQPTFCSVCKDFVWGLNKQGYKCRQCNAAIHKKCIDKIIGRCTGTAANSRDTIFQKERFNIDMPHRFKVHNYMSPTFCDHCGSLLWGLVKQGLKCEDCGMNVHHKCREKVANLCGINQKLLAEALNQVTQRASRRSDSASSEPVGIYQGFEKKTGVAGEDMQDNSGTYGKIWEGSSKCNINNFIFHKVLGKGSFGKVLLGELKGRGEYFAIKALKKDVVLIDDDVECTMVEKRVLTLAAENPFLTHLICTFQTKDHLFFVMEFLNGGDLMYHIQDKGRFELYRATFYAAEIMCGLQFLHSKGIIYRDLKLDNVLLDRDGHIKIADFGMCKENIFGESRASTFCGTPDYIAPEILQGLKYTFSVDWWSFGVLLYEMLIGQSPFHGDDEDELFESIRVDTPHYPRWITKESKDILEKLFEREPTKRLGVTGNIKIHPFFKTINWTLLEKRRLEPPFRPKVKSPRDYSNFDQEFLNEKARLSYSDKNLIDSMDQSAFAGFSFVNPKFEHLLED

C=CC(=O)Nc1ccc(C(=O)Nc2[nH]nc3c2CN(C(=O)N[C@H](CN(C)C)c2ccccc2)C3(C)C)cc1
% of engagement [1]: -0.5%

CC[C@@H]1[C@H](F)C(=O)N[C@@H]1COc1nccc2cc(C(N)=O)c(OC)cc12 [ZIMLOVISERTIB]
% of inhibition [2]: 23.8%

CN1CCN(C(=O)c2ccc3cc2OCCOCCNc2ccn4ncc-3c4n2)CC1
dTM [3]: 2.3 K

CCC(=O)N1CCN(c2ccc(-n3c(=O)ccc4cnc5ccc(-c6cnc7ccccc7c6)cc5c43)cc2C(F)(F)F)CC1
% of control [4]: 100%

CN(C)C/C=C/C(=O)Nc1ccc(C(=O)N2CCCC(Nc3ncc(Cl)c(-c4c[nH]c5ccccc45)n3)C2)cc1 (stereo unspecified)
% of control [5]: 100%

C=CC(=O)Nc1cc(-n2c(=O)ccc3cnc4ccc(-c5ccc(NS(C)(=O)=O)cc5)cc4c32)ccc1C
% of control ([6]; at 1 µM): 100% | % of control ([6]; at 10 µM): 65%

CCc1cccc(CC)c1NC(=O)c1nn(C)c2c1CCc1cnc(Nc3ccc(C(=O)NC4CCN(C)CC4)cc3OC(F)(F)F)nc1-2
IC50 [7]: > 10 µM

CN(C)CCOc1ccc(-c2nc(-c3ccncc3)c(-c3ccc4c(c3)CC/C4=N\O)[nH]2)cc1
% of control [8]: 100%

Cn1cc(-n2cnc3c(NCc4nc5cc(Cl)c(Cl)cc5[nH]4)nc(N4CCOCC4)nc32)cn1
% of control [9]: 17.8% | % of control [10]: -0.676%

— ChEMBL document CHEMBL5465560, “Selectivity Literature for EUbOPEN Chemogenomic Library” (2024)
